Assay results published in ChEMBL document CHEMBL3885861, “Open TG-GATES”.

Species: Rattus norvegicus
Test: Open TG-GATES - Regimen: Single
Assay type: toxicity, organism-based, Sprague-Dawley
Design: regimen Single, gender Male, age 6 weeks
Conditions: in vivo, po, route gavage; for APTT / Bas / Eos / Fbg / Hb / Ht / Lym / MCH / MCHC / Mono / Neu / PT / Plat / RBC / Ret / WBC / MCV: tissue Blood; for KIDNEY_L / KIDNEY_R / KIDNEY_TOTAL: tissue Kidney; for LIVER: tissue Liver; for ALP / ALT / AST / BUN / CRE / Ca / Cl / DBIL / GLC / IP / K / LDH / Na / PL / RALB / TBIL / TC / TG / TP / gamma-GTP: tissue Plasma
[1] = 0 mg/kg, 3 h, dose level Control
[2] = 0 mg/kg, 6 h, dose level Control
[3] = 0 mg/kg, 9 h, dose level Control
[4] = 0 mg/kg, 24 h, dose level Control
[5] = 300 mg/kg, 24 h, dose level Low

## CCOc1ccc(NC(C)=O)cc1 [PHENACETIN]
[1]
  TERMINAL_BW: 210.2 g
  APTT: 17.4 s
  Bas: 0%
  Eos: 0.6%
  Fbg: 292 mg/dL
  Hb: 13.3 g/dL
  Ht: 40.2%
  Lym: 78.2%
  MCH: 20.7 pg
  MCHC: 33%
  Mono: 3%
  Neu: 17.8%
  PT: 13.7 s
  Plat: 114.8 x10_4/uL
  RBC: 641.4 x10_4/ul
  Ret: 8.1%
  WBC: 96.3 x10_2/uL
  KIDNEY_L: 0.9 g
  KIDNEY_R: 0.9 g
  KIDNEY_TOTAL: 1.8 g
  LIVER: 9.1 g
  ALP: 1765 IU/L
  ALT: 39.6 IU/L
  AST: 74.4 IU/L
  BUN: 11.6 mg/dL
  CRE: 0.2 mg/dL
  Ca: 11.1 mg/dL
  Cl: 105.4 meq/L
  DBIL: 0 mg/dL
  GLC: 169 mg/dL
  IP: 8.8 mg/dL
  K: 4.2 meq/L
  LDH: 115.4 IU/L
  Na: 142.2 meq/L
  PL: 153.4 mg/dL
  RALB: 2.5 g/dL
  TBIL: 0.05 mg/dL
  TC: 87.8 mg/dL
  TG: 53.2 mg/dL
  TP: 5.4 g/dL
  gamma-GTP: 1.8 IU/L
[2]
  TERMINAL_BW: 211 g
  APTT: 18.2 s
  Bas: 0.4%
  Eos: 1%
  Fbg: 290.8 mg/dL
  Hb: 13.6 g/dL
  Ht: 40.8%
  Lym: 76.2%
  MCH: 20.7 pg
  MCHC: 33.4%
  MCV: 62.2 fL
  Mono: 2.6%
  Neu: 19.4%
  PT: 14.1 s
  Plat: 119.9 x10_4/uL
  RBC: 656.6 x10_4/ul
  Ret: 7.6%
  WBC: 104.2 x10_2/uL
  KIDNEY_L: 0.9 g
  KIDNEY_R: 1 g
  KIDNEY_TOTAL: 1.9 g
  LIVER: 8.7 g
  ALP: 1471.4 IU/L
  AST: 74.4 IU/L
  BUN: 9.6 mg/dL
  CRE: 0.2 mg/dL
  Ca: 11 mg/dL
  Cl: 106 meq/L
  DBIL: 0 mg/dL
  GLC: 171.6 mg/dL
  IP: 9.3 mg/dL
  K: 4.1 meq/L
  LDH: 73.8 IU/L
  Na: 144 meq/L
  PL: 142 mg/dL
  RALB: 2.5 g/dL
  TBIL: 0.052 mg/dL
  TC: 78.8 mg/dL
  TG: 50 mg/dL
  TP: 5.4 g/dL
  gamma-GTP: 1.4 IU/L
[3]
  TERMINAL_BW: 210.5 g
  APTT: 17.7 s
  Bas: 0.2%
  Eos: 0.8%
  Fbg: 302.8 mg/dL
  Hb: 13.2 g/dL
  Ht: 39.7%
  Lym: 77.4%
  MCH: 21.6 pg
  MCHC: 33.3%
  MCV: 64.9 fL
  Mono: 2.6%
  PT: 13.7 s
  Plat: 116.6 x10_4/uL
  RBC: 611.4 x10_4/ul
  Ret: 8.6%
  WBC: 81.1 x10_2/uL
  KIDNEY_L: 0.9 g
  KIDNEY_R: 0.9 g
  KIDNEY_TOTAL: 1.9 g
  LIVER: 8.4 g
  ALP: 1519.6 IU/L
  ALT: 36.8 IU/L
  AST: 75.4 IU/L
  BUN: 9.2 mg/dL
  CRE: 0.2 mg/dL
  Ca: 10.9 mg/dL
  DBIL: 0.002 mg/dL
  GLC: 163.6 mg/dL
  IP: 9.8 mg/dL
  K: 4 meq/L
  LDH: 75.8 IU/L
  Na: 143.4 meq/L
  PL: 145.6 mg/dL
  RALB: 2.5 g/dL
  TBIL: 0.066 mg/dL
  TC: 81.6 mg/dL
  TG: 44.2 mg/dL
  TP: 5.4 g/dL
  gamma-GTP: 1.2 IU/L
[4]
  TERMINAL_BW: 226.9 g
  APTT: 17.2 s
  Bas: 0%
  Eos: 1%
  Fbg: 296.2 mg/dL
  Hb: 13.3 g/dL
  Ht: 40.1%
  Lym: 82.4%
  MCH: 21.1 pg
  MCHC: 33%
  MCV: 63.7 fL
  Mono: 2.2%
  Neu: 13.6%
  PT: 13.6 s
  Plat: 120.9 x10_4/uL
  RBC: 630.4 x10_4/ul
  Ret: 7.8%
  WBC: 100.3 x10_2/uL
  KIDNEY_L: 1 g
  KIDNEY_R: 1 g
  KIDNEY_TOTAL: 1.9 g
  LIVER: 10.7 g
  ALP: 1883.2 IU/L
  ALT: 37.2 IU/L
  AST: 66.2 IU/L
  BUN: 15.2 mg/dL
  CRE: 0.2 mg/dL
  Ca: 11.1 mg/dL
  Cl: 104.4 meq/L
  DBIL: 0.008 mg/dL
  GLC: 179 mg/dL
  IP: 7.9 mg/dL
  K: 4.2 meq/L
  LDH: 106.8 IU/L
  PL: 161.8 mg/dL
  RALB: 2.6 g/dL
  TBIL: 0.038 mg/dL
  TC: 81.8 mg/dL
  TG: 122.2 mg/dL
  TP: 5.7 g/dL
  gamma-GTP: 1 IU/L
300 mg/kg, 3 h, dose level Low
  TERMINAL_BW: 214.8 g
  APTT: 17.3 s
  Bas: 0.4%
  Eos: 1%
  Hb: 14.3 g/dL
  Ht: 42.8%
  Lym: 73.2%
  MCH: 20.6 pg
  MCHC: 33.3%
  MCV: 62.2 fL
  Mono: 2.6%
  Neu: 22.8%
  PT: 14 s
  Plat: 134.5 x10_4/uL
  RBC: 689.2 x10_4/ul
  Ret: 8.6%
  WBC: 59.5 x10_2/uL
  KIDNEY_L: 1 g
  KIDNEY_R: 1 g
  KIDNEY_TOTAL: 1.9 g
  LIVER: 9.3 g
  ALP: 1454.6 IU/L
  ALT: 38.2 IU/L
  AST: 72 IU/L
  BUN: 8.4 mg/dL
  CRE: 0.2 mg/dL
  Ca: 10.9 mg/dL
  Cl: 101 meq/L
  DBIL: 0 mg/dL
  GLC: 206.6 mg/dL
  IP: 11.3 mg/dL
  K: 3.7 meq/L
  LDH: 77.4 IU/L
  Na: 141.6 meq/L
  PL: 152.4 mg/dL
  RALB: 2.6 g/dL
  TBIL: 0.034 mg/dL
  TC: 83.2 mg/dL
  TG: 78.2 mg/dL
  TP: 5.7 g/dL
  gamma-GTP: 1.4 IU/L
300 mg/kg, 6 h, dose level Low
  TERMINAL_BW: 205.3 g
  APTT: 16.7 s
  Bas: 0%
  Eos: 0.2%
  Fbg: 332.4 mg/dL
  Ht: 43.8%
  Lym: 74%
  MCH: 21.2 pg
  MCHC: 33.7%
  MCV: 62.9 fL
  Mono: 2.4%
  PT: 14.2 s
  Plat: 124.8 x10_4/uL
  RBC: 696 x10_4/ul
  Ret: 8.3%
  WBC: 66.9 x10_2/uL
  KIDNEY_L: 1 g
  KIDNEY_R: 0.9 g
  KIDNEY_TOTAL: 1.9 g
  LIVER: 9.1 g
  ALP: 1428.2 IU/L
  ALT: 39 IU/L
  AST: 71.2 IU/L
  BUN: 9.6 mg/dL
  CRE: 0.1 mg/dL
  Ca: 11.1 mg/dL
  Cl: 101.2 meq/L
  DBIL: 0 mg/dL
  GLC: 198.4 mg/dL
  IP: 10.1 mg/dL
  K: 3.7 meq/L
  LDH: 80.4 IU/L
  Na: 140.4 meq/L
  PL: 152.6 mg/dL
  RALB: 2.7 g/dL
  TBIL: 0.046 mg/dL
  TC: 94.2 mg/dL
  TG: 35.6 mg/dL
  TP: 5.8 g/dL
  gamma-GTP: 1 IU/L
300 mg/kg, 9 h, dose level Low
  TERMINAL_BW: 204.1 g
  APTT: 17.8 s
  Bas: 0%
  Eos: 0.6%
  Fbg: 313.2 mg/dL
  Hb: 14.4 g/dL
  Ht: 42.3%
  Lym: 72.2%
  MCH: 21 pg
  MCV: 61.6 fL
  Mono: 4.2%
  Neu: 22.2%
  PT: 13.9 s
  Plat: 119.6 x10_4/uL
  RBC: 686.6 x10_4/ul
  Ret: 8.4%
  WBC: 60.7 x10_2/uL
  KIDNEY_L: 0.9 g
  KIDNEY_R: 0.9 g
  KIDNEY_TOTAL: 1.8 g
  LIVER: 8.5 g
  ALP: 1326.6 IU/L
  ALT: 33.4 IU/L
  AST: 65.4 IU/L
  BUN: 11.6 mg/dL
  CRE: 0.2 mg/dL
  Ca: 11.1 mg/dL
  Cl: 99 meq/L
  DBIL: 0.008 mg/dL
  GLC: 210.8 mg/dL
  IP: 8.8 mg/dL
  K: 4 meq/L
  LDH: 93 IU/L
  Na: 139 meq/L
  PL: 163.2 mg/dL
  RALB: 2.7 g/dL
  TBIL: 0.062 mg/dL
  TC: 94.8 mg/dL
  TG: 50.6 mg/dL
  TP: 5.8 g/dL
  gamma-GTP: 1.4 IU/L
[5]
  TERMINAL_BW: 210.4 g
  APTT: 16.7 s
  Bas: 0%
  Eos: 1%
  Fbg: 297.4 mg/dL
  Hb: 13.9 g/dL
  Ht: 41.5%
  Lym: 77.4%
  MCH: 20.7 pg
  MCHC: 33.4%
  MCV: 62.2 fL
  Mono: 2.6%
  Neu: 18.6%
  PT: 14.1 s
  Plat: 126.5 x10_4/uL
  RBC: 668.8 x10_4/ul
  Ret: 7.5%
  WBC: 86.4 x10_2/uL
  KIDNEY_L: 1 g
  KIDNEY_R: 1 g
  KIDNEY_TOTAL: 1.9 g
  LIVER: 9.2 g
  ALP: 1966 IU/L
  ALT: 44.4 IU/L
  AST: 83 IU/L
  BUN: 14.4 mg/dL
  CRE: 0.2 mg/dL
  Ca: 11.1 mg/dL
  Cl: 105 meq/L
  DBIL: 0.01 mg/dL
  GLC: 168.6 mg/dL
  IP: 7.7 mg/dL
  K: 4.4 meq/L
  LDH: 149.6 IU/L
  Na: 144 meq/L
  PL: 166 mg/dL
  RALB: 2.6 g/dL
  TBIL: 0.05 mg/dL
  TC: 87.8 mg/dL
  TG: 84.4 mg/dL
